Here are results for 25 compounds from patent US8471005B2 (Cephalon, Inc., priority 2008, dated 2013).

In one assay the target is T1, ALK (Homo sapiens, UniProt Q9UM73).
T1 construct: host or cells: baculovirus expression system
Kind of assay: ALK Kinase Assay (ELISA/TRF, PLC-γ substrate). The assay is classed as biochemical. The conditions noted are these: ALK Kinase Inhibition; read-out: ALK Potency. Summed up:
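PLC-γ coat 10 μg/mL in TBS; ALK 30 ng/ml added to start; 37° C, 15 min; Eu-N1 PT66 antibody detection (TRF). IC50: % inhibition vs log10 [cpd], variable-slope sigmoidal fit.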
(In general: ELISA stands for enzyme-linked immunosorbent assay.)

The target in the next assay is T2, JAK2 (Homo sapiens, UniProt O60674).
T2 construct: host or cells: baculovirus expression system
Kind of assay: Recombinant Human JAK2 Kinase Assay (TRF). The assay is classed as biochemical. The conditions noted are these: JAK2 Kinase Inhibition; read-out: JAK2 Potency. Summed up:
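TRF read-out: Eu-N1 PY100 anti-phosphotyrosine antibody detects product. Enzyme is baculovirus-expressed JAK2 at 15 ng/ml; substrate is a biotinyl 15-mer peptide bound to Neutravidin-coated wells. Buffer 20 mM HEPES pH 7.2, 0.2 μM ATP, 1 mM MnCl2, 0.1% BSA, 2.5% DMSO final; 20 min, RT.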

T1 sequence (Q9UM73 19-1620): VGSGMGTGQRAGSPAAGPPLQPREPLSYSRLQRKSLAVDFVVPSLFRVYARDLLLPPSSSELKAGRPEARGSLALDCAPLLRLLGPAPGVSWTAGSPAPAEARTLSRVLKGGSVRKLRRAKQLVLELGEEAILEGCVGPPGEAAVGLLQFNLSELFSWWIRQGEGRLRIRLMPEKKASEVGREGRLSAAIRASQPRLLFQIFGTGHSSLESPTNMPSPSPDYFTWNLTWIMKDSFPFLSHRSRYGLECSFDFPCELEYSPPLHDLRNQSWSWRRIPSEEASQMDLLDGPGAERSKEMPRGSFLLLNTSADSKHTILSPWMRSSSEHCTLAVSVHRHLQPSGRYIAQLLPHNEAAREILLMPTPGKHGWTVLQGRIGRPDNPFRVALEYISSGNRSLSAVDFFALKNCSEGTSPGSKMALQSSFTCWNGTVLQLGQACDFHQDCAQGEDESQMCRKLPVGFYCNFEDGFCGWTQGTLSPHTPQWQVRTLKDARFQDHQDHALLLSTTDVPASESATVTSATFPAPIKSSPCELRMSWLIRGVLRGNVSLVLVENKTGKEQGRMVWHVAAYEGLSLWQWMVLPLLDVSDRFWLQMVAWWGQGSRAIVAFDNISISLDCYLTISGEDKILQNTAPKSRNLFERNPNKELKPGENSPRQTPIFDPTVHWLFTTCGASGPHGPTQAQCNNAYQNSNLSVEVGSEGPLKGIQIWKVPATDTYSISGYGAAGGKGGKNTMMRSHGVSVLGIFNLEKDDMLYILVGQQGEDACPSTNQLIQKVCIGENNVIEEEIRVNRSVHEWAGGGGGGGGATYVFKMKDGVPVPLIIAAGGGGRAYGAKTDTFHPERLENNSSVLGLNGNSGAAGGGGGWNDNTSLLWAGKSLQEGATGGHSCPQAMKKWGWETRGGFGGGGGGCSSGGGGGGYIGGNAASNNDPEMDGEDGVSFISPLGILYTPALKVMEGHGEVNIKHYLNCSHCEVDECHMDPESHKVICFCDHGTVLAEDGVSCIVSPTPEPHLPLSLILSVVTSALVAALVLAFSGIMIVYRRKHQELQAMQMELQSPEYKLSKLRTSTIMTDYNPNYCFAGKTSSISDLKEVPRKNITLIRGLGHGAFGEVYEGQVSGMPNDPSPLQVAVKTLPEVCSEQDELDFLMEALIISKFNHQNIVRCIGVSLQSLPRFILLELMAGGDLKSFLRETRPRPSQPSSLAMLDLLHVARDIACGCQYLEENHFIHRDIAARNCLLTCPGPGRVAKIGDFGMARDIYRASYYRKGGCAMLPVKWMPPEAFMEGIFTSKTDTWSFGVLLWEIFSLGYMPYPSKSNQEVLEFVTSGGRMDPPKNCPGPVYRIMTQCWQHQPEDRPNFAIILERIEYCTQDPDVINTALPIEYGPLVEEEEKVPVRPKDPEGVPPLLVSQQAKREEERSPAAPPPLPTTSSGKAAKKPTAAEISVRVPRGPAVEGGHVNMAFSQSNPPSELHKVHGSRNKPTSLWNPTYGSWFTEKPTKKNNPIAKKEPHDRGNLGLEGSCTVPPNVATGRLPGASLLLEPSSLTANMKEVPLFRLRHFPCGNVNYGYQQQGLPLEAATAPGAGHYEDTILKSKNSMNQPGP
T2 sequence (O60674 whole entry): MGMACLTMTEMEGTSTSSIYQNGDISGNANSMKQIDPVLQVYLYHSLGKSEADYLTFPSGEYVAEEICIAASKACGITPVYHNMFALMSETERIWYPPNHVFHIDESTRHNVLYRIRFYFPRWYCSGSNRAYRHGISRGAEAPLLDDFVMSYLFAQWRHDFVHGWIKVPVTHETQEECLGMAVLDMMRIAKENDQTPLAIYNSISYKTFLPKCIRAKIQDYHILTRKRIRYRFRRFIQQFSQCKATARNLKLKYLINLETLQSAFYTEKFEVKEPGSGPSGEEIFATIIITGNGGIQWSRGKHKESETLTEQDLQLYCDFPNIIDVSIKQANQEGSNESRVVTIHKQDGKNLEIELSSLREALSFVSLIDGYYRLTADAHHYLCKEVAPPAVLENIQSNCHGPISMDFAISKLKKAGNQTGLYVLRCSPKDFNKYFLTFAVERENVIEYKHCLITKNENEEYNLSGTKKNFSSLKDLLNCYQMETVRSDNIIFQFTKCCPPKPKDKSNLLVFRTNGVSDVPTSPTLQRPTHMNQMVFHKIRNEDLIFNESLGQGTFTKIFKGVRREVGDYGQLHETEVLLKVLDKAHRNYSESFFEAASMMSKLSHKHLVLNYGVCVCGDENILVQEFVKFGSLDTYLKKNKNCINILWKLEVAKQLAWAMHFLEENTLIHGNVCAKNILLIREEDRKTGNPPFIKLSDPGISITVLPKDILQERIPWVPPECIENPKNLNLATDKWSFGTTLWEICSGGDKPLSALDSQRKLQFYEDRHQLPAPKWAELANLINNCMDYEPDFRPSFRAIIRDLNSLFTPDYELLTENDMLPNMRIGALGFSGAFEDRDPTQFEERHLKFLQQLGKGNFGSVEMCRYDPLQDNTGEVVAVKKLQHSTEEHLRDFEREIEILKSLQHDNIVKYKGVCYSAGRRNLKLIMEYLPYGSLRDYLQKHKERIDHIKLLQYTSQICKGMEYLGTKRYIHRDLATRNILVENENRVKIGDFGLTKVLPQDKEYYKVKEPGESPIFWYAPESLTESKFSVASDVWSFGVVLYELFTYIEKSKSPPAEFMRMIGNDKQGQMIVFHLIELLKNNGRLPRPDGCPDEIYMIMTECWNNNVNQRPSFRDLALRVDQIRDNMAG

Regarding `COc1ccc(-c2ccc3cnc(Nc4ccc(C5CNCCN5)cc4)nn23)cn1` (centres unmarked) [Example 1529, [7-(6-Methoxy-pyridin-3-yl)-pyrrolo[2,1-f][1,2,4]triazin-2-yl]-(4-piperazin-2-yl-phenyl)-amine], the IC50 at ALK was 0.1 to 1 µM; at JAK2, < 0.1 µM.

`COc1ccc(-c2ccc3cnc(Nc4ccc(C5CN(C)CCN5C)cc4)nn23)cn1` (centres unmarked) [Example 1530, [4-(1,4-Dimethyl-piperazin-2-yl)-phenyl]-[7-(6-methoxy-pyridin-3-yl)-pyrrolo[2,1-f][1,2,4]triazin-2-yl]-amine]: the IC50 at ALK was 0.1 to 1 µM; at JAK2 it was < 0.1 µM.

Turning to `COc1cccnc1-c1ccc2cnc(Nc3ccc(C4CCN(CC(N)=O)CC4)cc3)nn12` [Example 1531, 2-(4-{4-[7-(3-Methoxy-pyridin-2-yl)-pyrrolo[2,1-f][1,2,4]triazin-2-ylamino]-phenyl}-piperidin-1-yl)-acetamide], the IC50 at ALK is 1 to 10 µM; at JAK2, < 0.1 µM.

Take `COc1cc(C2CCN(CC(N)=O)CC2)ccc1Nc1ncc2ccc(-c3ncccc3OC)n2n1` [Example 1532, 2-(4-{3-Methoxy-4-[7-(3-methoxy-pyridin-2-yl)-pyrrolo[2,1-f][1,2,4]triazin-2-ylamino]-phenyl}-piperidin-1-yl)-acetamide]: the IC50 on ALK and at JAK2 was 1 to 10 µM each time.

`COc1cc(C2CCN(CC(N)=O)CC2)ccc1Nc1ncc2ccc(-c3cccc4c3OC(F)(F)O4)n2n1` [Example 1533, 2-(4-{4-[7-(2,2-Difluoro-benzo[1,3]dioxol-4-yl)-pyrrolo[2,1-f][1,2,4]triazin-2-ylamino]-3-methoxy-phenyl}-piperidin-1-yl)-acetamide]: the values for the IC50 at ALK and at JAK2 were < 0.1 µM and 1 to 10 µM, respectively.

Take `CN1CCN(c2cccc(Nc3ncc4ccc(-c5cccc6c5OC(F)(F)O6)n4n3)c2)CC1` [Example 1534, [7-(2,2-Difluoro-benzo[1,3]dioxol-4-yl)-pyrrolo[2,1-f][1,2,4]triazin-2-yl]-[3-(4-methyl-piperazin-1-yl)-phenyl]-amine]: the IC50 on ALK is 0.1 to 1 µM; on JAK2, < 0.1 µM.

As for `FC1(F)Oc2cccc(-c3ccc4cnc(Nc5ccc6c(c5)CCC(N5CCOCC5)CC6)nn34)c2O1` (centres unmarked) [Example 1535, [7-(2,2-Difluoro-benzo[1,3]dioxol-4-yl)-pyrrolo[2,1-f][1,2,4]triazin-2-yl]-(7-morpholin-4-yl-6,7,8,9-tetrahydro-5H-benzocyclohepten-2-yl)-amine], the IC50 at ALK is 1 to 10 µM; at JAK2, < 0.1 µM.

As for `FC1(F)Oc2cccc(-c3ccc4cnc(Nc5ccc6[nH]c(CN7CCOCC7)nc6c5)nn34)c2O1` [Example 1536, [7-(2,2-Difluoro-benzo[1,3]dioxol-4-yl)-pyrrolo[2,1-f][1,2,4]triazin-2-yl]-(2-morpholin-4-ylmethyl-1H-benzoimidazol-5-yl)-amine], the IC50 at ALK is 0.1 to 1 µM; at JAK2, < 0.1 µM.

Take `CS(=O)(=O)c1cccc(-c2ccc3cnc(Nc4ccc5[nH]c(CN6CCOCC6)nc5c4)nn23)c1` [Example 1537, [7-(3-Methanesulfonyl-phenyl)-pyrrolo[2,1-f][1,2,4]triazin-2-yl]-(2-morpholin-4-ylmethyl-1H-benzimidazol-5-yl)-amine]: the IC50 at ALK is 1 to 10 µM; at JAK2, < 0.1 µM.

As to `CN1CCN(Cc2nc3cc(Nc4ncc5ccc(-c6cccc(S(C)(=O)=O)c6)n5n4)ccc3[nH]2)CC1` [Example 1538, [7-(3-Methanesulfonyl-phenyl)-pyrrolo[2,1-f][1,2,4]triazin-2-yl]-[2-(4-methyl-piperazin-1-ylmethyl)-1H-benzimidazol-5-yl]-amine], the IC50 at ALK is 0.1 to 1 µM; at JAK2 it was < 0.1 µM.

On to `CS(=O)(=O)c1cccc(-c2ccc3cnc(Nc4ccc5[nH]c(CN6CCN(CCO)CC6)nc5c4)nn23)c1` [Example 1539, 2-(4-{5-[7-(3-Methanesulfonyl-phenyl)-pyrrolo[2,1-f][1,2,4]triazin-2-ylamino]-1H-benzimidazol-2-ylmethyl}-piperazin-1-yl)-ethanol], for which the figures for the IC50 at ALK and on JAK2 were 1 to 10 µM and < 0.1 µM, respectively.

Turning to `NC(=O)CN1CCC(c2ccc(Nc3ncc4ccc(-c5cccc6c5OC(F)(F)O6)n4n3)cc2)CC1` [Example 1540, 2-(4-{4-[7-(2,2-Difluoro-benzo[1,3]dioxol-4-yl)-pyrrolo[2,1-f][1,2,4]triazin-2-ylamino]-phenyl}-piperidin-1-yl)-acetamide], the IC50 at ALK was 0.1 to 1 µM; at JAK2 it was < 0.1 µM.

`CS(=O)(=O)c1ccc(-c2ccc3cnc(Nc4ccc5[nH]c(CN6CCOCC6)nc5c4)nn23)cc1` [Example 1541, [7-(4-Methanesulfonyl-phenyl)-pyrrolo[2,1-f][1,2,4]triazin-2-yl]-(2-morpholin-4-ylmethyl-1H-benzimidazol-5-yl)-amine]: the IC50 was > 10 µM at ALK and < 0.1 µM on JAK2.

Regarding `CN1CCN(Cc2nc3cc(Nc4ncc5ccc(-c6ccc(S(C)(=O)=O)cc6)n5n4)ccc3[nH]2)CC1` [Example 1542, [7-(4-Methanesulfonyl-phenyl)-pyrrolo[2,1-f][1,2,4]triazin-2-yl]-[2-(4-methyl-piperazin-1-ylmethyl)-1H-benzimidazol-5-yl]-amine], the IC50 on ALK is 1 to 10 µM; at JAK2 it was < 0.1 µM.

On to `CS(=O)(=O)c1ccc(-c2ccc3cnc(Nc4ccc5[nH]c(CN6CCN(CCO)CC6)nc5c4)nn23)cc1` [Example 1543, 2-(4-{5-[7-(4-Methanesulfonyl-phenyl)-pyrrolo[2,1-f][1,2,4]triazin-2-ylamino]-1H-benzimidazol-2-ylmethyl}-piperazin-1-yl)-ethanol], for which the IC50 was 1 to 10 µM at ALK and < 0.1 µM on JAK2.

In the case of `CC(C)(C)NS(=O)(=O)c1cccc(-c2ccc3cnc(Nc4ccc(C5(C#N)CCN(CC(N)=O)CC5)cc4)nn23)c1` [Example 1544, 2-(4-{4-[7-(3-tert-Butylsulfamoyl-phenyl)-pyrrolo[2,1-f][1,2,4]triazin-2-ylamino]-phenyl}-4-cyano-piperidin-1-yl)-acetamide], the IC50 was 0.1 to 1 µM at ALK and < 0.1 µM at JAK2.

As to `COc1ccc(-c2ccc3cnc(Nc4ccc(C5(C#N)CCN(CC(N)=O)CC5)cc4)nn23)cn1` [Example 1545, 2-(4-Cyano-4-{4-[7-(6-methoxy-pyridin-3-yl)-pyrrolo[2,1-f][1,2,4]triazin-2-ylamino]-phenyl}-piperidin-1-yl)-acetamide], the IC50 was 0.1 to 1 µM at ALK and < 0.1 µM at JAK2.

With `CS(=O)(=O)c1cccc(-c2ccc3cnc(Nc4ccc(C5(C#N)CCN(CC(N)=O)CC5)cc4)nn23)c1` [Example 1546, 2-(4-Cyano-4-{4-[7-(3-methanesulfonyl-phenyl)-pyrrolo[2,1-f][1,2,4]triazin-2-ylamino]-phenyl}-piperidin-1-yl)-acetamide], the values for the IC50 at ALK and at JAK2 were 1 to 10 µM and < 0.1 µM, respectively.

Take `CS(=O)(=O)c1ccc(-c2ccc3cnc(Nc4ccc(C5(C#N)CCN(CC(N)=O)CC5)cc4)nn23)cc1` [Example 1547, 2-(4-Cyano-4-{4-[7-(4-methanesulfonyl-phenyl)-pyrrolo[2,1-f][1,2,4]triazin-2-ylamino]-phenyl}-piperidin-1-yl)-acetamide]: the results for the IC50 at ALK and on JAK2 were 1 to 10 µM and < 0.1 µM, respectively.

`COc1ccccc1-c1ccc2cnc(Nc3ccc(C4(C#N)CCN(CC(N)=O)CC4)cc3)nn12` [Example 1548, 2-(4-Cyano-4-{4-[7-(2-methoxy-phenyl)-pyrrolo[2,1-f][1,2,4]triazin-2-ylamino]-phenyl}-piperidin-1-yl)-acetamide]: the IC50 at ALK is 0.1 to 1 µM; at JAK2, < 0.1 µM.

For the compound `CN(c1ccccc1-c1ccc2cnc(Nc3ccc(C4(C#N)CCN(CC(N)=O)CC4)cc3)nn12)S(C)(=O)=O` [Example 1549, 2-[4-Cyano-4-(4-{7-[2-(methanesulfonyl-methyl-amino)-phenyl]-pyrrolo[2,1-f][1,2,4]triazin-2-ylamino}-phenyl)-piperidin-1-yl]-acetamide], the IC50 on ALK and on JAK2 was < 0.1 µM each time.

With `CC(C)(C)NS(=O)(=O)c1cccc(-c2ccc3cnc(Nc4cccc(C5(O)CCNCC5)c4)nn23)c1` [Example 1550, N-tert-Butyl-3-{2-[3-(4-hydroxy-piperidin-4-yl)-phenylamino]-pyrrolo[2,1-f][1,2,4]triazin-7-yl}-benzenesulfonamide], the IC50 at ALK and at JAK2 was < 0.1 µM throughout.

Regarding `COc1ccc(-c2ccc3cnc(Nc4cccc(C5(O)CCNCC5)c4)nn23)cn1` [Example 1551, 4-{3-[7-(6-Methoxy-pyridin-3-yl)-pyrrolo[2,1-f][1,2,4]triazin-2-ylamino]-phenyl}-piperidin-4-ol], the IC50 is 0.1 to 1 µM at ALK and < 0.1 µM on JAK2.

As to `CS(=O)(=O)c1cccc(-c2ccc3cnc(Nc4cccc(C5(O)CCNCC5)c4)nn23)c1` [Example 1552, 4-{3-[7-(3-Methanesulfonyl-phenyl)-pyrrolo[2,1-f][1,2,4]triazin-2-ylamino]-phenyl}-piperidin-4-ol], the IC50 is 0.1 to 1 µM at ALK and < 0.1 µM at JAK2.

Take `CN(c1ccccc1-c1cc(Cl)c2cnc(Nc3ccc(C4CCN(CC(N)=O)CC4)cc3)nn12)S(C)(=O)=O` [Example 1553, 2-[4-(4-{5-Chloro-7-[2-(methanesulfonyl-methyl-amino)-phenyl]-pyrrolo[2,1-f][1,2,4]triazin-2-ylamino}-phenyl)-piperidin-1-yl]-acetamide]: the IC50 on ALK and at JAK2 was < 0.1 µM throughout.
